# From patent US9409952B2, “Peptide-compound cyclization method” (Chugai Seiyaku Kabushiki Kaisha, priority 2011, dated 2016)
# Like-named read-outs stand apart in the source and are kept apart here. Starred links: 1 amine or outer side, 2 acyl side, 3 side chain; linkers in the order of their positions; H or OH if unused. Positions of bridges follow the written chain, without caps; N, C: chain ends. Non-standard residues stand in square brackets, D forms with d. Residues, ends and D or L forms follow the SMILES beside them. ξ: configuration not given here. *: point of attachment. NMeF = CN[C@@H](Cc1ccccc1)C(=O)O; NMeGABA = CN(CCCC(=O)[*:2])[*:1]; NMeI = CC[C@H](C)[C@H](NC)C(=O)O; NMeβAla = CN(CCC(=O)[*:2])[*:1]; NMeL = CN[C@@H](CC(C)C)C(=O)O; ξNMeF = CNC(Cc1ccccc1)C(=O)O; NMeV = CN[C@H](C(=O)O)C(C)C; NMeS = CN[C@@H](CO)C(=O)O; NMeA = CN[C@@H](C)C(=O)O; Piperidide = C1CCN(*)CC1; dNMeA = CN[C@H](C)C(=O)O; β3hA = C[C@H](N)CC(=O)O; Sar = CNCC(=O)O; tBu = CC(C)(C)*
# Key:
# [1] = PAMPA (parallel artificial membrane permeability assay); assay type: in vitro ADME; settings: PAMPA
# Procedure, shortened: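 Artificial membrane was 10% (w/v) egg lecithin plus 0.5% (w/v) cholesterol in dodecane on a PVDF filter. A 10 mM DMSO stock was added at 0.5% (v/v) to donor buffer (50 mM MOPSO, pH 6.5, 5.0% glycocholic acid). After 18 h at 37 °C, LC/MS or LC/UV gave donor and acceptor levels for Pe.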
# [2] = Metabolic stability in human hepatic microsome; assay type: in vitro ADME; settings: microsomes
# [3] = membrane permeation rate (Pe), 50 mM MOPSO buffer pH 6.5 with 5.0% glycocholic acid, 37° C., 18 hours, read-out: iPAMPA Pe
# [4] = pH 7.4, human hepatic microsome, NADPH(+), read-out: CL NADPH(+)
SMILES,"Papp at 18 hours, 50 µM [1, 3]","microsomal CLint at 1 uM [2, 4]","Papp at 18 hours, 50 µM ([1]; pH 6.5)","microsomal CLint at 1 uM ([2]; human, pH 7.4, CL NADPH(+))"
CC(C)C[C@H]1C(=O)N[C@@H](Cc2ccccc2)C(=O)N[C@@H]([C@@H](C)O)C(=O)N(C)[C@@H](C)C(=O)N[C@H](C(=O)N2CCCCC2)CC(=O)N(C)CC(=O)N[C@@H](C)C(=O)N(C)[C@@H](Cc2ccccc2)C(=O)N(C)[C@@H](CC(C)C)C(=O)N1C [DP-161] ([Sar]A[NMeF][NMeL][NMeL]FT[NMeA]D-Piperidide; lactam N-9),26 ×10⁻⁶ cm/s,194 µL/min/mg,–,–
CC[C@H](C)[C@H](NC(=O)[C@H](CC(C)C)N(C)C(=O)[C@@H]1CCCN1C(=O)[C@H](Cc1ccccc1)N(C)C(=O)[C@@H]1CC(=O)N[C@H](C(C)C)C(=O)N[C@@H](C)C(=O)N(C)[C@@H](Cc2ccccc2)C(=O)N(C)[C@@H](C)C(=O)N[C@@H](Cc2ccccc2)C(=O)N(C)[C@@H](CC(C)C)C(=O)N[C@@H]([C@@H](C)O)C(=O)N1)C(=O)N1CCCCC1 [DP-929] ([dV]A[NMeF][NMeA]F[NMeL]TD[NMeF]P[NMeL]I-Piperidide; lactam N-8),12 ×10⁻⁶ cm/s,49 µL/min/mg,–,–
CC(C)C[C@H]1C(=O)N[C@H](C(=O)N(C)[C@@H](Cc2ccccc2)C(=O)N(C)[C@@H](Cc2ccccc2)C(=O)N[C@@H](C)C(=O)N2CCCCC2)CC(=O)N[C@H](C)C(=O)N(C)[C@@H](C)C(=O)N(C)[C@@H](Cc2ccccc2)C(=O)N(C)[C@@H](CC(C)C)C(=O)N[C@@H]([C@@H](C)O)C(=O)N(C)[C@@H](C)C(=O)N(C)[C@@H](CC(C)C)C(=O)N[C@@H](C(C)C)C(=O)N1C [DP-204] ([dA][NMeA][NMeF][NMeL]T[NMeA][NMeL]V[NMeL]D[NMeF][NMeF]A-Piperidide; lactam N-10),22 ×10⁻⁶ cm/s,48 µL/min/mg,–,–
CC(C)C[C@H]1C(=O)N2CCC[C@H]2C(=O)N(C)[C@@H](CC(C)C)C(=O)N[C@@H](C)C(=O)N(C)[C@@H](C(C)C)C(=O)N[C@@H](C)CC(=O)N(C)[C@@H](C)C(=O)N[C@@H]([C@@H](C)O)C(=O)N(C)CC(=O)N(C)[C@@H](Cc2ccccc2)C(=O)N(C)[C@@H](Cc2ccccc2)C(=O)N1C [DP-768] (cyclo(A[NMeV][β3hA][NMeA]T[Sar][NMeF][NMeF][NMeL]P[NMeL])),–,–,25 ×10⁻⁶ cm/s,34 µL/min/mg
CC[C@H](C)[C@@H]1NC(=O)[C@H](CC(C)C)N(C)C(=O)[C@H](CC(C)C)N(C)C(=O)[C@H](C)N(C)C(=O)[C@H]([C@@H](C)O)NC(=O)[C@H](C(C)C)N(C)C(=O)[C@H](Cc2ccccc2)NC(=O)CN(C)C(=O)[C@H](C)N(C)C(=O)C[C@@H](C(=O)N2CCCCC2)NC1=O [DP-439] ([NMeA][Sar]F[NMeV]T[NMeA][NMeL][NMeL]ID-Piperidide; lactam N-10),34 ×10⁻⁶ cm/s,139 µL/min/mg,–,–
CC[C@H](C)[C@H]1C(=O)N[C@H](C(=O)N(C)[C@@H](Cc2ccccc2)C(=O)N[C@@H](C)C(=O)N2CCCCC2)CC(=O)N[C@@H](C)C(=O)N(C)[C@@H](Cc2ccccc2)C(=O)N(C)[C@@H](CC(C)C)C(=O)N[C@@H]([C@@H](C)O)C(=O)N(C)[C@@H](C)C(=O)N[C@@H](C(C)C)C(=O)N(C)[C@@H](CC(C)C)C(=O)N1C [DP-305] (A[NMeF][NMeL]T[NMeA]V[NMeL][NMeI]D[NMeF]A-Piperidide; lactam N-9),–,–,35 ×10⁻⁶ cm/s,700 µL/min/mg
CC(C)C[C@H]1C(=O)N(C)[C@@H](CC(C)C)C(=O)N[C@H](C(=O)N(C)[C@@H](Cc2ccccc2)C(=O)N[C@@H](C)C(=O)N2CCCCC2)CC(=O)N(C)CCC(=O)N(C)[C@@H](C)C(=O)N(C)[C@@H](CC(C)C)C(=O)N[C@@H]([C@@H](C)O)C(=O)N(C)[C@@H](Cc2ccccc2)C(=O)N[C@@H](C(C)C)C(=O)N(C)CC(=O)N1C [DP-194] ([NMeβAla][NMeA][NMeL]T[NMeF]V[Sar][NMeL][NMeL]D[NMeF]A-Piperidide; lactam N-10),22 ×10⁻⁶ cm/s,72 µL/min/mg,–,–
CC(C)C[C@H]1C(=O)N(C)[C@@H](Cc2ccccc2)C(=O)N[C@@H](C)CC(=O)N[C@H](C(C)C)C(=O)N[C@@H](C)C(=O)N[C@@H]([C@@H](C)O)C(=O)N(C)[C@@H](C)C(=O)N[C@@H](Cc2ccccc2)C(=O)N1C [DP-796] (cyclo(AT[NMeA]F[NMeL][NMeF][β3hA][dV])),20 ×10⁻⁶ cm/s,66 µL/min/mg,–,–
CC[C@H](C)[C@H]1C(=O)N[C@H](C(=O)N2CCCCC2)CC(=O)N[C@H](C(C)C)C(=O)N[C@@H]([C@@H](C)O)C(=O)N(C)[C@@H](C)C(=O)N(C)[C@@H](C(C)C)C(=O)N[C@@H](Cc2ccccc2)C(=O)N(C)[C@@H](CC(C)C)C(=O)N[C@@H](C)C(=O)N(C)CC(=O)N1C [DP-253] ([dV]T[NMeA][NMeV]F[NMeL]A[Sar][NMeI]D-Piperidide; lactam N-10),7.5 ×10⁻⁶ cm/s,42 µL/min/mg,–,–
CC(C)C[C@@H]1NC(=O)[C@H]([C@@H](C)O)NC(=O)[C@H](CC(C)C)N(C)C(=O)[C@H](Cc2ccccc2)N(C)C(=O)[C@H](C)N(C)C(=O)C[C@@H](C(=O)N2CCCCC2)NC(=O)[C@H](COC(C)(C)C)NC(=O)[C@H](CC(C)C)N(C)C1=O [DP-696] ([NMeA][NMeF][NMeL]TL[NMeL]S(tBu)D-Piperidide; lactam N-8),37 ×10⁻⁶ cm/s,194 µL/min/mg,–,–
CC(C)C[C@H]1C(=O)N[C@@H](Cc2ccccc2)C(=O)N(C)[C@@H](C)C(=O)N(C)[C@@H](C)C(=O)N[C@@H]([C@@H](C)O)C(=O)N(C)CC(=O)N(C)[C@@H](Cc2ccccc2)C(=O)N[C@H](C(=O)N(C)[C@@H](Cc2ccccc2)C(=O)N[C@@H](C)C(=O)N2CCCCC2)CC(=O)N(C)[C@H](C)C(=O)N(C)[C@@H](C)C(=O)N[C@@H](C)C(=O)N1C [DP-363] ([dNMeA][NMeA]A[NMeL]F[NMeA][NMeA]T[Sar][NMeF]D[NMeF]A-Piperidide; lactam N-11),5 ×10⁻⁶ cm/s,15 µL/min/mg,–,–
CC[C@H](C)[C@@H]1NC(=O)[C@H](C)NC(=O)C[C@@H](C(=O)N(C)[C@@H](Cc2ccccc2)C(=O)N(C)[C@@H](Cc2ccccc2)C(=O)N[C@@H](C)C(=O)N2CCCCC2)NC(=O)[C@H](C)NC(=O)[C@H](C)N(C)C(=O)[C@H](CC(C)C)N(C)C(=O)CN(C)C(=O)[C@H]([C@@H](C)O)NC(=O)[C@H](C(C)C)N(C)C(=O)[C@H](Cc2ccccc2)N(C)C1=O [DP-389] (AI[NMeF][NMeV]T[Sar][NMeL][NMeA]AD[NMeF][NMeF]A-Piperidide; lactam N-10),15 ×10⁻⁶ cm/s,14 µL/min/mg,–,–
CC(C)C[C@H]1C(=O)N(C)[C@@H](Cc2ccccc2)C(=O)NCC(=O)N[C@@H](C)CC(=O)N(C)CCCC(=O)N[C@@H]([C@@H](C)O)C(=O)N(C)[C@@H](C)C(=O)N(C)[C@@H](Cc2ccccc2)C(=O)N[C@@H](COC(C)(C)C)C(=O)N1C [DP-785] (cyclo(G[β3hA][NMeGABA]T[NMeA][NMeF]S(tBu)[NMeL][NMeF])),–,–,29 ×10⁻⁶ cm/s,193 µL/min/mg
CC[C@H](C)[C@H]1C(=O)N[C@H](C(=O)N2CCCCC2)CC(=O)N(C)CCC(=O)N[C@@H](Cc2ccccc2)C(=O)N(C)[C@@H](CC(C)C)C(=O)N[C@@H](COC(C)(C)C)C(=O)NCC(=O)N2CCC[C@H]2C(=O)N[C@@H]([C@@H](C)O)C(=O)N[C@@H](CC(C)C)C(=O)N(C)[C@@H](C)C(=O)N[C@@H](Cc2ccccc2)C(=O)N1C [DP-222] ([NMeβAla]F[NMeL]S(tBu)GPTL[NMeA]F[NMeI]D-Piperidide; lactam N-12),16 ×10⁻⁶ cm/s,30 µL/min/mg,–,–
CC[C@H](C)[C@H]1C(=O)N[C@@H]([C@@H](C)O)C(=O)N(C)[C@@H](C)C(=O)N(C)[C@@H](CC(C)C)C(=O)N[C@H](C(=O)N2CCCCC2)CC(=O)N(C)CCC(=O)N(C)[C@@H](CC(C)C)C(=O)N[C@@H](CC(C)C)C(=O)N(C)[C@@H](Cc2ccccc2)C(=O)N[C@@H](COC(C)(C)C)C(=O)N(C)C(Cc2ccccc2)C(=O)N1C (stereo partly drawn) [DP-103] ([NMeβAla][NMeL]L[NMeF]S(tBu)[ξNMeF][NMeI]T[NMeA][NMeL]D-Piperidide; lactam N-11),–,–,19 ×10⁻⁶ cm/s,73 µL/min/mg
CC(C)C[C@H]1C(=O)N[C@@H](C)C(=O)N(C)[C@@H](Cc2ccccc2)C(=O)N(C)[C@@H](C)C(=O)N(C)[C@@H](Cc2ccccc2)C(=O)N[C@H](C(=O)N(C)[C@@H](Cc2ccccc2)C(=O)N[C@@H](C)C(=O)N2CCCCC2)CC(=O)N(C)[C@H](C)C(=O)N(C)[C@@H](C)C(=O)N(C)[C@@H](CC(C)C)C(=O)N[C@@H]([C@@H](C)O)C(=O)N(C)[C@@H](C)C(=O)N1C [DP-347] ([dNMeA][NMeA][NMeL]T[NMeA][NMeL]A[NMeF][NMeA][NMeF]D[NMeF]A-Piperidide; lactam N-11),25 ×10⁻⁶ cm/s,40 µL/min/mg,–,–
CC(C)C[C@H]1C(=O)N[C@@H]([C@@H](C)O)C(=O)N(C)[C@@H](Cc2ccccc2)C(=O)N[C@@H](COC(C)(C)C)C(=O)N[C@H](C(=O)N2CCCCC2)CC(=O)N[C@@H](C(C)C)C(=O)N(C)CC(=O)N1C [DP-749] (V[Sar][NMeL]T[NMeF]S(tBu)D-Piperidide; lactam N-7),17 ×10⁻⁶ cm/s,56 µL/min/mg,–,–
CC(C)C[C@@H]1NC(=O)[C@H](CO)N(C)C(=O)C[C@H](C)NC(=O)[C@H](CC(C)C)N(C)C(=O)[C@H](CC(C)C)N(C)C(=O)[C@@H](C)NC(=O)[C@H](C(C)C)NC(=O)[C@H](CC(C)C)N(C)C(=O)[C@H](C(C)C)NC(=O)[C@H](CC(C)C)N(C)C(=O)CN(C)C1=O [DP-652] (cyclo(L[Sar][NMeL]V[NMeL]V[dA][NMeL][NMeL][β3hA][NMeS])),30 ×10⁻⁶ cm/s,51 µL/min/mg,–,–
CC[C@H](C)[C@@H]1NC(=O)[C@H](Cc2ccccc2)NC(=O)[C@@H](C)N(C)C(=O)C[C@@H](C(=O)N2CCCCC2)NC(=O)[C@H](CC(C)C)NC(=O)[C@H](Cc2ccccc2)N(C)C(=O)[C@H](Cc2ccccc2)NC(=O)[C@H](CC(C)C)NC(=O)[C@H]([C@@H](C)O)NC(=O)[C@H](CC(C)C)NC1=O [DP-119] ([dNMeA]FILTLF[NMeF]LD-Piperidide; lactam N-10),16 ×10⁻⁶ cm/s,67 µL/min/mg,–,–
